Data taken from patent US20250099448A1, “HETEROCYCLIC COMPOUNDS” (Hoffmann-La Roche Inc., priority 2022, published 2025).

Biological target: T1, MAGL protein (Homo sapiens, UniProt Q99685)
T1 sequence (Q99685 1-303): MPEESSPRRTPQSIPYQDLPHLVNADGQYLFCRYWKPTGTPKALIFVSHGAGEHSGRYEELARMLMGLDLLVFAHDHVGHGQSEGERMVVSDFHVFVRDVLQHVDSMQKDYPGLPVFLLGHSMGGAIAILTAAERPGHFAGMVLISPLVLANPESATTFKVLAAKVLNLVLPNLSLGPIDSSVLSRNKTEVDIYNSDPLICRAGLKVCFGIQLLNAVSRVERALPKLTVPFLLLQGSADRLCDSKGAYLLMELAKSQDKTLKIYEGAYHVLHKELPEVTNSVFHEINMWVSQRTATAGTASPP
Test: 2-AG assay: MAGL inhibitory activity by hydrolysis of 2-arachidonoylglycerol to arachidonic acid, followed by mass spectrometry
Type: biochemical
Conditions: 8 μM 2-arachidonoylglycerol, 15 min preincubation, 30 min reaction at RT, RapidFire MS readout
Method in brief: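 Activity was measured by RapidFire SPE–triple-quad MS as the ratio of arachidonic acid to d8-arachidonic acid after 2-AG hydrolysis (8 μM substrate, 30 min, RT, acetonitrile quench). Compounds, tested from 12.5 μM down to […], were first preincubated 15 min with MAGL in TRIS/EDTA/Tween-20 buffer containing 2.5% DMSO.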

Structure (SMILES)	IC50
Cc1cc(C(F)F)nn1CC1CC2(C1)CN(C(=O)N1CC3(CC(c4nc(C5CC5)n[nH]4)C3)C1)C2 [compound 818]	0.59 nM
O=C(O)c1ccccc1CN1CC2(C1)CN(C(=O)N1CC3(CC(c4nnc(C5CC5)[nH]4)C3)C1)C2 [Example 172, 2-[[2-[6-(5-cyclopropyl-4H-1,2,4-triazol-3-yl)-2-azaspiro[3.3]heptane-2-carbonyl]-2,6-diazaspiro[3.3]heptan-6-yl]methyl]benzoic Acid]	502 nM
CS(=O)(=O)c1cc(F)cc(CC2CC3(C2)CN(C(=O)N2CC4(CC(c5nnc(C6CC6)[nH]5)C4)C2)C3)c1 [compound 18]	0.3 nM
CCOc1cc(C)n(-c2ccc(C3CN(C(=O)N4CC5(CC(c6nnc(C7CC7)[nH]6)C5)C4)C3)cc2)n1 [Example 559, [6-(5-cyclopropyl-4H-1,2,4-triazol-3-yl)-2-azaspiro[3.3]heptan-2-yl]-[3-[4-(3-ethoxy-5-methyl-pyrazol-1-yl)phenyl]azetidin-1-yl]methanone]	0.46 nM
O=C(N1CC2(CC(Cc3ccc(OC(F)(F)F)cn3)C2)C1)N1CC2(CC(c3nnc(C4(O)CC4)[nH]3)C2)C1 [compound 9]	0.57 nM
O=C(N1CC(NS(=O)(=O)c2cccc(OC(F)(F)F)c2)C1)N1CC2(CC(c3nnc(C4CC4)[nH]3)C2)C1 [compound 205]	155 nM
O=C(N1CC2(CC(c3nnc(C4CC4)[nH]3)C2)C1)N1CC2(CC(N3CC(CC(F)(F)F)C3)C2)C1 [compound 84]	32.7 nM
O=C(N1CC(c2ccc(-n3nc(C(F)F)cc3C3CC3)cc2)C1)N1CC2(CC(c3nnc(C4CC4)[nH]3)C2)C1 [compound 839]	0.27 nM
O=C(N1CC2(CC(Cc3cc(C(F)(F)F)ncn3)C2)C1)N1CC2(CC(c3nc(C4CC4)n[nH]3)C2)C1 [compound 400]	1.17 nM
O=C(N1CC2(CC(Cc3ccc(C(F)(F)F)nc3)C2)C1)N1CC2(CC(c3nnc(C4CCC4)[nH]3)C2)C1 [compound 7]	3.65 nM
O=C(N1CC(c2ccc([C@H]3C[C@H](C(F)(F)F)C3)nc2)C1)N1CC2(CC(c3nnc(C4CC4)[nH]3)C2)C1 [compound 300]	1 nM
O=C(N1CC(NS(=O)(=O)C2CCC(F)(F)CC2)C1)N1CC2(CC(c3nnc(C4CC4)[nH]3)C2)C1 [compound 204]	1360 nM
O=C(N1CC2(CC(c3nc(C4CC4)n[nH]3)C2)C1)N1CC2(CN(Cc3cc(C(F)(F)F)ns3)C2)C1 [compound 713]	3.42 nM
O=C(N1CC2(CC(Cc3ccc(C(F)(F)F)cn3)C2)C1)N1CC2(CC(c3nnc(C4CCC4)[nH]3)C2)C1 [compound 112]	2.04 nM
O=C(N1CC(c2ccc(C3CC(O)(C(F)(F)F)C3)cc2)C1)N1CC2(CC(c3nnc(C4CC4)[nH]3)C2)C1 (stereo not drawn) [compound 291]	0.57 nM
O=C(N1CC2(CC(Cc3ccc(F)cn3)C2)C1)N1CC2(CC(c3nnc(C4(O)CC4)[nH]3)C2)C1 [compound 44]	2.24 nM
N=S(=O)(c1ccc(CC2CC3(C2)CN(C(=O)N2CC4(CC(c5nc(C6(O)CC6)n[nH]5)C4)C2)C3)c(F)c1)C(F)(F)F (stereo not drawn) [compound 715]	0.45 nM
O=C(N1CC2(CCC(Cc3ccc(F)cn3)CC2)C1)N1CC2(CC(c3nnc(C4(O)CC4)[nH]3)C2)C1 [compound 145]	12.6 nM
O=C(N1CC(c2ccc(N3CC(C(F)(F)F)C3)nc2)C1)N1CC2(CC(c3nnc(C4CCC4)[nH]3)C2)C1 [compound 260]	19.7 nM
O=C(N1CC2(CC(c3nc(C4CC4)n[nH]3)C2)C1)N1CC2(CN(Cc3nc(CC4CC4)no3)C2)C1 [compound 733]	29.5 nM
Cn1ncc(C(F)(F)F)c1CC1CC2(C1)CN(C(=O)N1CC3(CC(c4nc(C5CC5)n[nH]4)C3)C1)C2 [compound 691]	0.16 nM
O=C(N1CC2(CC(Cn3cc(C(F)(F)F)ccc3=O)C2)C1)N1CC2(CC(c3nc(C4(O)CC4)n[nH]3)C2)C1 [compound 417]	6.2 nM
CP1(=O)CCN(c2ccc(C3CN(C(=O)N4CC5(CC(c6nnc(C7CC7)[nH]6)C5)C4)C3)cn2)CC1 [compound 53]	179 nM

Structure (SMILES)	IC50
O=C(N1CC(c2ccc(-n3nc(C4CC4)cc3C(F)F)cc2)C1)N1CC2(CC(c3nnc(C4CC4)[nH]3)C2)C1 [compound 875]	0.33 nM
O=C(N1CC2(CC(COc3ccc(C(F)(F)F)cn3)C2)C1)N1CC2(CC(c3nc(C4CC4)n[nH]3)C2)C1 [compound 970]	0.16 nM
CC(C)(C)c1ccc(C2CN(C(=O)N3CC4(CC(c5nc(C6CC6)n[nH]5)C4)C3)C2)cn1 [compound 399]	2.63 nM
O=C(N1CC2(CC(Cc3nnc(C4(C(F)(F)F)CC4)o3)C2)C1)N1CC2(CC(c3nnc(C4CC4)[nH]3)C2)C1 [compound 862]	1.57 nM
O=C(N1CC2(CC(Cc3ccc(S(=O)(=O)C4CC4)cc3)C2)C1)N1CC2(CC(c3nc(C4CC4)n[nH]3)C2)C1 [compound 859]	0.19 nM
N#Cc1cc(CC2CC3(C2)CN(C(=O)N2CC4(CC(c5nnc(C6(O)CC6)[nH]5)C4)C2)C3)ccc1C(F)(F)F [compound 27]	0.11 nM
CP(C)(=O)c1ccc(CC2CC3(C2)CN(C(=O)N2CC4(CC(c5nnc(C6CC6)[nH]5)C4)C2)C3)cc1 [compound 926]	6.58 nM
CS(=O)(=O)c1ccc(-c2ccc(C3CN(C(=O)N4CC5(CC(c6nnc(C7CC7)[nH]6)C5)C4)C3)cc2)c(Cl)c1 [compound 338]	0.09 nM
CNC(=O)c1ccccc1CN1CC2(C1)CN(C(=O)N1CC3(CC(c4nnc(C5CC5)[nH]4)C3)C1)C2 [compound 173]	230 nM
O=C(N1CC2(CC(Cc3cnc(C(F)(F)F)cn3)C2)C1)N1CC2(CC(c3nc(C4COC4)n[nH]3)C2)C1 [compound 761]	147 nM
O=C(N1CC2(CCC(Cc3ccc(C(F)(F)F)cn3)CC2)C1)N1CC2(CC(c3nnc(C4CC4)[nH]3)C2)C1 [compound 48]	0.13 nM
O=C(N1CC2(CC(c3nc(C4CC4)n[nH]3)C2)C1)N1CC2(CN(Cc3nc(C4CC4)ns3)C2)C1 [compound 637]	7.44 nM
CS(=O)(=O)c1cccc(CC2CC3(C2)CN(C(=O)N2CC4(CC(c5nnc(C6CC6)[nH]5)C4)C2)C3)c1 [compound 15]	1.33 nM
O=C(N1CC2(CC(Cn3nccc3C(F)(F)F)C2)C1)N1CC2(CC(c3nc(C4COC4)n[nH]3)C2)C1 [compound 716]	29.2 nM
CC(C)(C)Cc1nnc(C23CC(C4CN(C(=O)N5CC6(CC(c7nc(C8CC8)n[nH]7)C6)C5)C4)(C2)C3)s1 [compound 581]	2.22 nM
O=C(N1CC2(CC(c3nc(C4CC4)n[nH]3)C2)C1)N1CC2(CN(Cc3nccn3CC(F)(F)F)C2)C1 [compound 698]	55.9 nM
O=C(N1CC2(CC(Cc3ccc4ncnn4c3)C2)C1)N1CC2(CC(c3nc(C4(O)CC4)n[nH]3)C2)C1 [compound 626]	56.4 nM
O=C(N1CC2(CC(Cn3ccnc3C(F)(F)F)C2)C1)N1CC2(CC(c3nc(C4CC4)n[nH]3)C2)C1 [compound 453]	1.73 nM
O=C(N1CC2(CC(c3nnc(C4CC4)[nH]3)C2)C1)N1CC2(C1)CN(S(=O)(=O)NC1(C(F)(F)F)CC1)C2 [compound 215]	17.4 nM
O=C(N1CC2(CCC(Cc3ccc(Cl)cn3)CC2)C1)N1CC2(CC(c3nnc(C4(O)CC4)[nH]3)C2)C1 [compound 139]	3.87 nM
O=C(N1CC(Oc2ccc(Cl)c(C3CC3)c2)C1)N1CC2(CC(c3nnc(C4(O)CC4)[nH]3)C2)C1 [compound 325]	14.7 nM
O=C(N1CC(c2ccc(N3CC[C@H](C(F)(F)F)C3)nc2)C1)N1CC2(CC(c3nnc(C4CC4)[nH]3)C2)C1 [compound 267]	0.31 nM
